The test system of this data set is T-lymphocytes. Nature of the data set: Lymphocyte toxicity assay (LTA). The data set is classed as cell-based, human. To be noted: for Viability %: post-mastectomy. An excerpt: The present invention is particularly effective in determining the efficacy of the drug alone by measuring the lymphocyte toxicity assay and then combining the prescribed drug with various anabolic steroidal compounds.
Exemplifying the present invention is Table 2 below which sets forth a lymphocyte toxicity assay for a post-mastectomy treatment for reducing pain by measuring the efficacy of combining a known drug, Inflectra, with a steroidal compound which is an anti-tumor necrosis alpha inhibitor as the base.

The mark [1] stands for this setting: single therapeutic, patient blood cells, untreated cell control = 100%.

For the molecule “INFLECTRA: known drug; anti-tumor necrosis alpha inhibitor”, under setting [1], the Viability % is 160%.

Consider `C[C@]12CC[C@H]3[C@@H](CCC4=CC(=O)CC[C@@H]43)[C@@H]1CC[C@@H]2O` [Nandrolone], for which, under setting [1], the Viability % is reported as 158%.

On to `C[C@]12Cc3c[nH]nc3C[C@@H]1CC[C@@H]1[C@@H]2CC[C@@]2(C)[C@H]1CC[C@]2(C)O` [Stanozolol], for which the “Toxicity to the cells (interpretation in words)” value (patient blood cells exposed to the therapeutics) is on record as “The only medication that was toxic to the cell was Stanozolol. However, the combination of Stanozolol”. The molecule also displayed a Toxicity under setting [1] of 14%.

Regarding `C[C@]12COC(=O)C[C@@H]1CC[C@@H]1[C@@H]2CC[C@@]2(C)[C@H]1CC[C@]2(C)O` [Oxandrolone], the Viability % under setting [1] was found to be 117%.

Under setting [1], `C[C@]12CC[C@H]3[C@@H](CCC4=CC(=O)CC[C@@]43C)[C@@H]1CC[C@@H]2O` [Testosterone] came in with a Viability % of 150%.

The values are drawn from patent US20250002597A1, “METHOD FOR OPTIMIZING DRUG SELECTION” (priority 2023, published 2025).
